Assay results as given in patent publication US10617691B2, “Combination of an anti-CD19 antibody and a Bruton's tyrosine kinase inhibitor and uses thereof” (MORPHOSYS AG, priority 2015, dated 2020).

B1: MOR00208: anti-CD19 antibody; heavy chain SEQ ID NO: 14, light chain SEQ ID NO: 15 (antibody)
heavy: EVQLVESGGGLVKPGGSLKLSCAASGYTFTSYVMHWVRQAPGKGLEWIGYINPYNDGTKYNEKFQGRVTISSDKSISTAYMELSSLRSEDTAMYYCARGTYYYGTRVFDYWGQGTLVTVSSASTKGPSVFPLAPSSKSTSGGTAALGCLVKDYFPEPVTVSWNSGALTSGVHTFPAVLQSSGLYSLSSVVTVPSSSLGTQTYICNVNHKPSNTKVDKKVEPKSCDKTHTCPPCPAPELLGGPDVFLFPPKPKDTLMISRTPEVTCVVVDVSHEDPEVQFNWYVDGVEVHNAKTKPREEQFNSTFRVVSVLTVVHQDWLNGKEYKCKVSNKALPAPEEKTISKTKGQPREPQVYTLPPSREEMTKNQVSLTCLVKGFYPSDIAVEWESNGQPENNYKTTPPMLDSDGSFFLYSKLTVDKSRWQQGNVFSCSVMHEALHNHYTQKSLSLSPGK
light: DIVMTQSPATLSLSPGERATLSCRSSKSLQNVNGNTYLYWFQQKPGQSPQLLIYRMSNLNSGVPDRFSGSGSGTEFTLTISSLEPEDFAVYYCMQHLEYPITFGAGTKLEIKRTVAAPSVFIFPPSDEQLKSGTASVVCLLNNFYPREAKVQWKVDNALQSGNSQESVTEQDSKDSTYSLSSTLTLSKADYEKHKVYACEVTHQGLSSPVTKSFNRGEC

Tested on: MEC-1 cells
Experiment: ADCC target cell killing of MEC-1 cells by NK cells (FACS, DAPI positive dead target cells), MOR00208 and Ibrutinib alone and in combination
Assay type: cell-based
Procedure: Cell lines tested: MEC-1 cells (DSMZ # ACC497). Cell lines are tested: chronic B-cell leukemia cell line; JVM-2 (ATCC® CRL-3002) a mantle cell lymphoma cell line; Ramos cells (ATCC number CRL-1596), a human Burkitt's lymphoma cells; HG-3 (DSMZ # ACC765), and CII (DSMZ # ACC773) are a chronic lymphocytic leukemia cell line; Su-DHL 6 (DSMZ # ACC572), U2932 (DSMZ # ACC633) and OCI-LY7 (DSMZ # ACC688) are a Diffuse large B-cell lymphoma (DLBCL) cell line; JVM-2 (ATCC® CRL-3002) is a mantle cell lymphoma cell line; and BALL-1 (DSMZ # ACC742) is an acute lymphoblastic leukemia cell line.
The cytotoxicity of MOR00208 and Ibrutinib alone and in combination were tested in the MEC-1 cell line (CLL). The cytotoxicity of MOR00208 and Ibrutinib alone and in combination are tested in the following target cell lines: JVM-2, Ramos, HG-3, CII, Su-DHL 6, U2932, OCI-LY7, JVM-2 and BALL-1.
Ibrutinib is a covalent inhibitor of Bruton's tyrosine kinase and should abrogate proliferation in target cell lines. MOR00208 targets CD19 and mediates target cell killing via ADCC. Target cell killing is measured using the following parameters: Ibrutinib at a concentration range of between 0.033 and 33 μM, specifically at 0.3 μM, 1.0 μM and 3.0 μM; MOR00208 at a concentration range from 0.001-10 nM, specifically at 0.01 nM, 0.1 nM, and 10 nM, and the combination of MOR00208 and Ibrutinib. The following are used as controls: RefmAb33 or NK cells alone. In the Ibrutinib group as well as in the MOR00208+Ibrutinib combination group, target cells are pre-treated with Ibrutinib for 7 days prior to the ADCC assay measurements. The target cells are counted and stained using 1 μg/ml CFSE end concentration. For DMSO treated target cells, an effector: target (E:T) ratio of 2:1 is chosen, corresponding to a cell density of 5×10^5/ml. The proliferative effect on target cells caused by Ibrutinib treatment was included by adjusting the E:T ratio in inhibitor treated cells. The NK cells are counted and adjusted to 1×10^6/ml. The target cell killing assays were performed as follows: using 96 well plates, 100 μl of target cell suspension was added per well, followed by 100 μl cell suspension of NK cells to each well resulting in an E:T ratio of 2:1. The antibodies were diluted in a range of 10-0.001 nM in medium. Cells were centrifuged and target: effector cell-pellets were re-suspended in 100 μl antibody-containing medium or the according control solution. The assay was incubated for 4 h in CO2-incubator at 37° C. After 10 min incubation on ice, 50 μl DAPI solution was added to each well (final concentration 1 μg/ml) and incubated on ice for 10 min. The cell killing measurements were performed with FACS-Verse. Dead target cells were DAPI positive.
In total, three experiments were performed in order to determine the mediation of ADCC on MEC-1 cells by the combination of MOR00208 and Ibrutinib.
The raw data (% dead cells) are analyzed as follows: 1) from the raw data (% dead cells), the background (controls) are subtracted, resulting in the specific killing for each treatment group; then 2) the specific killing values are normalized by setting the combination of MOR00208+Ibrutinib to 1.
Combination Index (CI) calculations are completed in order to determine synergy of the combination of the exemplified anti-CD19 antibody and Ibrutinib as compared to MOR00208 and Ibrutinib alone. Such calculations are described in Ting-Chao Chou, Theoretical Basis, Experimental Design, and Computerized Simulation of Synergism and Antagonism in Drug Combination Studies, Pharmacol Rev 58:621-681 (2006), which is incorporated by reference in its entirety and Chou T C, Talalay P, Quantitative analysis of dose-effect relationships: the combined effects of multiple drugs or enzyme inhibitors. Adv Enzyme Regul 22: 27-55 (1984), which is incorporated by reference in its entirety. The methods of Chou-Talalay are carried out using the CI-isobol method. […]

[1] = Experiment 1, Ibrutinib at 0.3 μM, MOR00208 0.01 nM, control (0.1% DMSO/Ref33) 25.27
[2] = Experiment 1, Ibrutinib at 0.3 μM, MOR00208 0.1 nM, control (0.1% DMSO/Ref33) 25.27
[3] = Experiment 1, Ibrutinib at 0.3 μM, MOR00208 10 nM, control (0.1% DMSO/Ref33) 25.27
[4] = Experiment 1, Ibrutinib at 1 μM, MOR00208 0.01 nM, control (0.1% DMSO/Ref33) 25.27
[5] = Experiment 1, Ibrutinib at 1 μM, MOR00208 0.1 nM, control (0.1% DMSO/Ref33) 25.27
[6] = Experiment 1, Ibrutinib at 1 μM, MOR00208 10 nM, control (0.1% DMSO/Ref33) 25.27
[7] = Experiment 1, Ibrutinib at 3 μM, MOR00208 0.01 nM, control (0.1% DMSO/Ref33) 25.27
[8] = Experiment 1, Ibrutinib at 3 μM, MOR00208 0.1 nM, control (0.1% DMSO/Ref33) 25.27
[9] = Experiment 1, Ibrutinib at 3 μM, MOR00208 10 nM, control (0.1% DMSO/Ref33) 25.27
[10] = Experiment 2, Ibrutinib at 0.3 μM, MOR00208 0.01 nM, control (0.03% DMSO/Ref33) 9.81
[11] = Experiment 2, Ibrutinib at 0.3 μM, MOR00208 0.1 nM, control (0.03% DMSO/Ref33) 9.81
[12] = Experiment 2, Ibrutinib at 0.3 μM, MOR00208 10 nM, control (0.03% DMSO/Ref33) 9.81
[13] = Experiment 2, Ibrutinib at 1 μM, MOR00208 0.01 nM, control (0.03% DMSO/Ref33) 9.81
[14] = Experiment 2, Ibrutinib at 1 μM, MOR00208 0.1 nM, control (0.03% DMSO/Ref33) 9.81
[15] = Experiment 2, Ibrutinib at 1 μM, MOR00208 10 nM, control (0.03% DMSO/Ref33) 9.81
[16] = Experiment 2, Ibrutinib at 3 μM, MOR00208 0.01 nM, control (0.03% DMSO/Ref33) 9.81
[17] = Experiment 2, Ibrutinib at 3 μM, MOR00208 0.1 nM, control (0.03% DMSO/Ref33) 9.81
[18] = Experiment 2, Ibrutinib at 3 μM, MOR00208 10 nM, control (0.03% DMSO/Ref33) 9.81
[19] = Experiment 3, Ibrutinib at 0.3 μM, MOR00208 0.01 nM, control (0.03% DMSO/Ref33) 16.40
[20] = Experiment 3, Ibrutinib at 0.3 μM, MOR00208 0.1 nM, control (0.03% DMSO/Ref33) 16.40
[21] = Experiment 3, Ibrutinib at 0.3 μM, MOR00208 10 nM, control (0.03% DMSO/Ref33) 16.40
[22] = Experiment 3, Ibrutinib at 1 μM, MOR00208 0.01 nM, control (0.03% DMSO/Ref33) 16.40
[23] = Experiment 3, Ibrutinib at 1 μM, MOR00208 0.1 nM, control (0.03% DMSO/Ref33) 16.40
[24] = Experiment 3, Ibrutinib at 1 μM, MOR00208 10 nM, control (0.03% DMSO/Ref33) 16.40
[25] = Experiment 3, Ibrutinib at 3 μM, MOR00208 0.01 nM, control (0.03% DMSO/Ref33) 16.40
[26] = Experiment 3, Ibrutinib at 3 μM, MOR00208 0.1 nM, control (0.03% DMSO/Ref33) 16.40
[27] = Experiment 3, Ibrutinib at 3 μM, MOR00208 10 nM, control (0.03% DMSO/Ref33) 16.40

Row | Molecule | percent (%) dead cells (raw data) [1] | percent (%) dead cells (raw data) [2] | percent (%) dead cells (raw data) [3] | percent (%) dead cells (raw data) [4] | percent (%) dead cells (raw data) [5] | percent (%) dead cells (raw data) [6] | percent (%) dead cells (raw data) [7] | percent (%) dead cells (raw data) [8] | percent (%) dead cells (raw data) [9] | percent (%) dead cells (raw data) [10] | percent (%) dead cells (raw data) [11] | percent (%) dead cells (raw data) [12] | percent (%) dead cells (raw data) [13] | percent (%) dead cells (raw data) [14] | percent (%) dead cells (raw data) [15] | percent (%) dead cells (raw data) [16] | percent (%) dead cells (raw data) [17] | percent (%) dead cells (raw data) [18] | percent (%) dead cells (raw data) [19] | percent (%) dead cells (raw data) [20] | also measured
1 | C=CC(=O)N1CCC[C@@H](n2nc(-c3ccc(Oc4ccccc4)cc3)c3c(N)ncnc32)C1 [Ibrutinib, 1-[(3R)-3-[4-amino-3-(4-phenoxyphenyl)-1H-pyrazolo[3,4-d]pyrimidin-1-yl]-1-piperidinyl]-2-propen-1-one] | 21.99% | 21.99% | 21.99% | 24.33% | 24.33% | 24.33% | 17.07% | 17.07% | 17.07% | 8.56% | 8.56% | 8.56% | 8.39% | 8.39% | 8.39% | 10.84% | 10.84% | 10.84% | 8.56% | 8.56% | percent (%) dead cells (raw data) [21]: 8.56%; percent (%) dead cells (raw data) [22]: 7.50%; percent (%) dead cells (raw data) [23]: 7.50%; percent (%) dead cells (raw data) [24]: 7.50%; percent (%) dead cells (raw data) [25]: 8.26%; percent (%) dead cells (raw data) [26]: 8.26%; percent (%) dead cells (raw data) [27]: 8.26%
2 | B1 | 56.54% | 72.31% | 73.77% | 56.54% | 72.31% | 73.77% | 56.54% | 72.31% | 73.77% | 37.57% | 52.10% | 50.83% | 37.57% | 52.10% | 50.83% | 37.57% | 52.10% | 50.83% | 63.68% | 81.30% | percent (%) dead cells (raw data) [21]: 81.41%; percent (%) dead cells (raw data) [22]: 63.68%; percent (%) dead cells (raw data) [23]: 81.30%; percent (%) dead cells (raw data) [24]: 81.41%; percent (%) dead cells (raw data) [25]: 63.68%; percent (%) dead cells (raw data) [26]: 81.30%; percent (%) dead cells (raw data) [27]: 81.41%
